Here are results for one molecule from patent US10945994B2, “Combinations comprising a pyrrolidine-2,5-dione IDO1 inhibitor and an anti-body” (Pfizer Inc., priority 2015, dated 2021).

The test system of data set [1] is B16-F10 cells. Kind of data set: B16-F10 melanoma model, combination with anti-PD-L1 and anti-4-1BB. Format: in vivo, C57BL/6J mice. To be noted: PF-06840003 600 mg/kg BID, anti-4-1BB 1 mg/kg, anti-PD-L1 10 mg/kg d9, 12, 15, 18. As to the method:
B16-F10 cells were obtained from the ATCC and grown following instructions on ATCC's website. 2×10^5 cells were implanted in […] PBS sc in the right flank of female C57BL/6J (Jackson labs) mice. Mice (n=20) were randomized into treatment groups and treatment initiated on day 9 after implant at a mean tumor size of 60 mm3. Antibody treatments were given as i.p. injection on day 9, 12, 15 and 18. anti-PD-L1 antibody (clone 10F.9G2; rat IgG2b) was purchased from BioxCell. anti-4-1BB antibody (MAB9371; rat IgG1—murinized) was purchased from R&D systems. […] All animal experimentation was approved in advance by and executed following Pfizer's IACUC.

Data set [2] addresses T1, IDO1 (Homo sapiens (Human), UniProt P14902). Kind of data set: IDO1 enzymatic activity by mass spectrometry assay. The class given is biochemical. Particulars: human enzyme; varied tryptophan and inhibitor concentrations. Here is the method: (§1) The full length complementary deoxyribonucleic acid (cDNA) for human IDO1 was cloned into a pFastbac-1 based vector and the full length cDNA for mouse and dog was cloned into a pET24a based vector. […] Human IDO1 was expressed in insect cells and purified using Ni affinity column. The mouse and dog IDO1 were expressed in Escherichia coli BL21 (DE3) and purified using a Ni affinity column. To obtain non-tagged, pure, and hemin loaded IDO1, TEV protease treated and tag removed protein was incubated with 10× molar ratio of hemin (dissolved in 25 mM NaOH) to protein at 4° C. overnight followed by size exclusion chromatography (SEC) for human IDO1 and anion exchange and SEC for mouse and dog IDO1.
The inhibition of human, dog and mouse IDO1 was measured by quantitating tryptophan and the generation of kynurenine by MS. […] The HCl stops the enzyme reactions and also converts the N-formyl kynurenine to kynurenine. […] Detection of tryptophan and kynurenine was accomplished following injection of assay reaction (injection loop volume is 10 μL) onto an Agilent Graphite Type D cartridge in 0.01% trifluoroacetic acid (TFA) plus 0.09% formic acid and eluted using 80% acetonitrile, 0.09% formic acid and 0.01% TFA. […]

The target in data set [3] is T2, TDO2 (Homo sapiens (Human), UniProt P48775). Kind of data set: TDO2 activity assay in A172 and THP-1 cells. The class given is cell-based. As to the method:
A172 cells were seeded in 96-well plates (12500 cells/well), treated with increasing concentrations of compounds and incubated for 16-18 h at 37° C., 5% CO2. Then TCA was added to the supernatant to stop the reaction. […] Kynurenine concentrations were determined by measuring absorbance at 480 nm. The reaction was run with single replicate.
THP-1 cells were stimulated with 2 ng/ml PMA for 24 h, then seeded in 96-well plates (100,000 cells/well), treated with 2 ng/ml PMA and increasing concentrations of compounds, and incubated for 24 h. Kynurenine concentrations were determined as described above. The reaction was run with single replicate.

Data set [4] concerns panel of receptors, ion channels, transporters and enzymes (64 targets in total). The experiment in a line: Cerep Wide Ligand Profile Screen. To be noted: initial concentration of 200 μM. Here is the method:
Three hits were noted (defined by a response greater that 50% of a maximal response) and follow up curves were performed by Cerep.

The target of data set [5] is T2, TDO2. The experiment in a line: Human TDO2 enzymatic assay. The class given is biochemical. As to the method:
The protocol was adapted from Dolusic et al, 2011. Briefly, the reaction mixture ([…]) contained TRIS buffer (50 mM, pH 7.5), methylene blue (0.125 mM), ascorbic acid (0.25 M), catalase (40 units/mL) and human recombinant TDO2 enzyme (prepared as described in Dolusic et al, 2011; 0.9 mg) with increasing concentrations of compounds (1.0 nM to […]). The reaction was run with single replicate. The reaction was initiated by the addition of the substrate L-tryptophan (1 mM).

Data set [6] concerns the target dog IDO1 (Canis lupus familiaris, UniProt A0A8I3N1Y1). The experiment in a line: IDO1 enzymatic activity by mass spectrometry assay. To be noted: dog enzyme; varied tryptophan and inhibitor concentrations. The class given is biochemical. As to the method:
as §1
(§2) The inhibition of human, dog and mouse IDO1 was measured by quantitating tryptophan and the generation of kynurenine by MS. IDO1 enzyme (1 nM) was incubated with various concentrations of the inhibitor ([…] to 1 nM), in duplicate, at room temperature in […] buffer (Mg2+, Ca2+−PBS, 20 mM ascorbic acid, 10 mM methylene blue, 800 nM catalase, […]). […] The HCl stops the enzyme reactions and also converts the N-formyl kynurenine to kynurenine. […] Detection of tryptophan and kynurenine was accomplished following injection of assay reaction (injection loop volume is 10 μL) onto an Agilent Graphite Type D cartridge in 0.01% trifluoroacetic acid (TFA) plus 0.09% formic acid and eluted using 80% acetonitrile, 0.09% formic acid and 0.01% TFA. The finalized RapidFire settings were as follows: aspiration time: 600 ms or until the loop is full per the sip sensor, load time: 5000 ms, elution time: 5000 ms, and re-equilibration time: 500 ms at a flow rate of 1.5 mL/min.

Data set [7] has as its target mouse IDO1 (Mus musculus (Mouse), UniProt P28776). The experiment in a line: IDO1 enzymatic activity by mass spectrometry assay. The class given is biochemical. To be noted: MS assay; geometric mean (95% confidence interval); read-out: Enzyme Activity IC50 mouse IDO1. Here is the method: as §1, §2
Data set [8] in a line: Passive permeability in RRCK cells. The class given is in vitro ADME, canine. Particulars: dog, MDCK, read-out: intrinsic permeability, apical to basolateral (A to B). Here is the method: In vitro Absorption: passive permeability was evaluated in Ralph-Russ canine kidney (RRCK) cells; high intrinsic permeability with an apical to basolateral (A to B) value of 25.5×10^−6 cm/sec. CNS Penetration: CNS distribution was investigated in male rats.

The target in data set [9] is T1, IDO1. The experiment in a line: Human whole blood assay (+ IFNγ/LPS). To be noted: read-out: unbound IC90, human whole blood. The class given is cell-based.
Protocol: Human whole blood was collected in sodium heparin and gently mixed. Then 25 mg/mL LPS (Sigma) and 100 ng/mL. IFNg (R&D) was added and transferred immediately to a 96-well U bottom plate, 200 mL per well. […] The final DMSO concentration was 0.5%. Following overnight incubation at 37° C., a 30 mL aliquot was precipitated with 270 mL acetonitrile/HPLC water (70:30), vortexed vigorously, and centrifuged at 3220×g for 15 minutes at 10° C. An aliquot of the supernatant organic solution was diluted in 0.1% Formic acid and spiked with stable labeled isotopes of kynurenine and tryptophan as internal standards prior to analysis. Kynurenine inhibition was determined by dividing the drug treated internal standard adjusted kynurenine counts by the positive control internal standard adjusted value. The no drug treated sample containing DMSO was used as the positive control. […] The IC50 and IC90 calculations were conducted in GraphPad Prism version 6.03.
In order to determine compound potency in a human cellular system, human whole blood was collected from 9 subjects. […] The unbound inhibitor IC50 and IC90 values were computed by applying a conversion for the unbound fraction value in whole blood, 0.419.
The subject of data set [10] is CT26 tumors. Kind of data set: CT26 syngeneic colon tumor model, combination with avelumab. The class given is in vivo, Balb/c mice. Particulars: Compound 1 200 mg/kg BID, Avelumab 10 mg/kg. An excerpt:
FIGS. 5A-5E show combinatorial anti-tumor effects of an IDO1 inhibitor and an anti-PD-L1 (avelumab) in the sc CT26 syngeneic mouse colon tumor model in Balb/c mice. […] FIGS. 5B-5E show the individual tumor growth curves.
Avelumab is a fully human anti-PD-L1 IgG1 monoclonal antibody, and thus, is not optimized for mouse.

T2 sequence (P48775 whole entry): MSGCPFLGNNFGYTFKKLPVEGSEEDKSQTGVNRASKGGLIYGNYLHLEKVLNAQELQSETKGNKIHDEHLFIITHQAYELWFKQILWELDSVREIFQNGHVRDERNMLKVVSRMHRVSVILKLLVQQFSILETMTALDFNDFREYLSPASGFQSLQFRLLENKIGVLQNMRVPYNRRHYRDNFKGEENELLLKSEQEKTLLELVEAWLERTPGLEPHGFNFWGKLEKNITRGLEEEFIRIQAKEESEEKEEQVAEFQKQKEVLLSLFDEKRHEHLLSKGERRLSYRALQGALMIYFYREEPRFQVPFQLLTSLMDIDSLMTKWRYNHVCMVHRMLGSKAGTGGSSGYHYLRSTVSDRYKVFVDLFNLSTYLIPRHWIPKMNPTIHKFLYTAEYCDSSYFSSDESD
T1 sequence (P14902 whole entry): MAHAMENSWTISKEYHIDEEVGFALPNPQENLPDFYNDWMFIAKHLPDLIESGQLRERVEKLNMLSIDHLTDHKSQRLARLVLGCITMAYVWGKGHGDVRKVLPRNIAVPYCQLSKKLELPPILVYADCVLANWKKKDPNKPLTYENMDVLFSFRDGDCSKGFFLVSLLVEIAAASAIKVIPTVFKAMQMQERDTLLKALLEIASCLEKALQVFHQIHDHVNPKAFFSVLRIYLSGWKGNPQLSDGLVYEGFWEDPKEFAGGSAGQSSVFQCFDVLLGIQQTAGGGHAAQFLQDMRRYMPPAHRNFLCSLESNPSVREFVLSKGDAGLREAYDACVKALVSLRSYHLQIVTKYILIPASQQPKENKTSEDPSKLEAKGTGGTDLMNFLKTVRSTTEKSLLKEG
Sequence of mouse IDO1 (P28776 whole entry): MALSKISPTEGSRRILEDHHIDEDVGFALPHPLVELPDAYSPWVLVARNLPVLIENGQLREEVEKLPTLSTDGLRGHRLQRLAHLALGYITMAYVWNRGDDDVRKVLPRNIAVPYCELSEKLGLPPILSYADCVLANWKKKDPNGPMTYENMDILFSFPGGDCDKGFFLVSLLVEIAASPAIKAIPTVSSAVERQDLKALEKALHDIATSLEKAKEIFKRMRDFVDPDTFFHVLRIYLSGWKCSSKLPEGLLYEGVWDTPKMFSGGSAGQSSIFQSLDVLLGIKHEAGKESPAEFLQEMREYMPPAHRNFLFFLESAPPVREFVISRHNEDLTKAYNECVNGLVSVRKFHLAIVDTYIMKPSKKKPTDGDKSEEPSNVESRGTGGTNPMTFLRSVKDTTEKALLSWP
Sequence of dog IDO1 (A0A8I3N1Y1 1-402): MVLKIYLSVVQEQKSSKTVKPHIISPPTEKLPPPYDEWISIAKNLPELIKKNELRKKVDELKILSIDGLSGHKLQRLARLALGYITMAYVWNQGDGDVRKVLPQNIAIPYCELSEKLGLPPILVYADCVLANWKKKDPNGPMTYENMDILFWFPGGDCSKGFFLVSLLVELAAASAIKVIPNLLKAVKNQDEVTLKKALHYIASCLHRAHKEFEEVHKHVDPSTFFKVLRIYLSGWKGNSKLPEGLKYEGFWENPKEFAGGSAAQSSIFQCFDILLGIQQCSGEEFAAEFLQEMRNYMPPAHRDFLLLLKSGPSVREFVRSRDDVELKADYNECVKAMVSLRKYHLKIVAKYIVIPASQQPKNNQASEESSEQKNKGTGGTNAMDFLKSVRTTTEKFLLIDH

For orientation: IC50 means the concentration needed to halve the response being measured. The IC90 is the concentration at which the effect reaches the 90% level. Turning to `O=C1CC(c2c[nH]c3ccc(F)cc23)C(=O)N1` (racemic) [Compound 1, 3-(5-fluoro-1H-indol-3-yl)pyrrolidine-2,5-dione], the results for the “% TGI (D17)” value in data set [1] and in data set [10] were 32% and 41%, respectively. Further, the results for the “% TGI (D20)” value in data set [1] and in data set [10] were 49% and 34%, respectively. Further, the results for the “mechanism of inhibition, preferred model fit” value in data set [2] and in data set [6] were “uncompetitive inhibition” and “noncompetitive inhibition”, respectively. The “A172 and THP-1 cells TDO2 inhibition” value in [3] (@50 μM) is on record as “no inhibition”. The “inhibitory activity in any of the human or mouse TDO2 assays” value in data set [3] (human biochemical and cellular, murine cellular, concentrations of up to 50 μM) was “did not display any significant inhibitory activity”. Further, the “hits (response greater than 50% of a maximal response) in off target panel” value in data set [4] was “Three”. Further, the IC50 is above 50 µM in data set [5] and 1.5 µM in [7]. In data set [8], the Papp A→B was 25.5 ×10⁻⁶ cm/s. In addition, the IC90 in data set [9] amounted to 10.7 µM. Moreover, the “% TGI (D15)” value in data set [10] is recorded as 38%.
